Source: patent US10471032B1, “Substituted glutaurine compounds and substituted glutaurine derivatives” (ThermoLife International, LLC, priority 2013, dated 2019)

How the values were obtained:
[1] = test system: estradiol and total testosterone; conditions: men treated, Taxel et al. (2001); cited from earlier work
estradiol = experiment: Estradiol level in blood samples during oral administration to a human subject; assay type: in vivo; conditions: for Estradiol: blood, one human subject, Day 0 before dosing 36
Experimental: (§1) To evaluate the effect of administration of glutaurine on estradiol and thyroid hormone levels in a human subject, approximately 800 micrograms (mcg) per day of glutaurine were administered orally to the subject over a period of about one month. At Day 0 prior to administration of the glutaurine and at Day 4 and Day 28 during administration of the glutaurine blood samples were collected and analyzed for the levels of estradiol, thyroid stimulating hormone (TSH), and the thyroid hormones triiodothyronine (T3) and thyroxine (T4). Total amounts of T3 and T4 were measured in the blood samples.

[2] = test system: thyroid stimulating hormone (TSH); experiment: TSH level in blood samples during oral administration to a human subject; assay type: in vivo; conditions: for TSH: blood, one human subject, Day 0 before dosing 3.01
Experimental: as §1

thyroxine (T4) = experiment: Total T4 level in blood samples during oral administration to a human subject; assay type: in vivo; conditions: for T4: total T4, blood, one human subject, Day 0 before dosing 8.3
Experimental: as §1

triiodothyronine (T3) = experiment: Total T3 level in blood samples during oral administration to a human subject; assay type: in vivo; conditions: for T3: total T3, blood, one human subject, Day 0 before dosing 91
Experimental: as §1

human subject = experiment: Subject-reported effects during administration; assay type: in vivo; conditions: oral approx. 800 mcg/day
Experimental: as §1
The subject also reported fat loss as a result of the glutaurine administration.

[3] = Day 4 of oral approx. 800 mcg/day
[4] = Day 28 of oral approx. 800 mcg/day
[5] = oral approx. 800 mcg/day for about one month, human subject
[6] = indicative of rising energy expenditure and metabolism

SMILES	change in estradiol [1]	change in total testosterone [1]	Estradiol (estradiol; [3]) [pg/mL]	Estradiol (estradiol; [4]) [pg/mL]	change in estradiol levels (estradiol; [5])	TSH [2, 3] [mIU/L]	TSH [2, 4] [mIU/L]	change in TSH levels [2, 5]	change in T4 levels (thyroxine (T4); [5])	T4 (thyroxine (T4); [3]) [µg/dL]	T4 (thyroxine (T4); [4]) [µg/dL]	change in T3 levels (triiodothyronine (T3); [5])	T3 (triiodothyronine (T3); [3]) [ng/dL]	T3 (triiodothyronine (T3); [4]) [ng/dL]	body fat (subject-reported) (human subject)	body temperature (subject-reported) (human subject; [6])	sweating (subject-reported) (human subject; [6])
CC(C)(C#N)c1cc(Cn2cncn2)cc(C(C)(C)C#N)c1 [anastrozole]	significant decrease	increase	–	–	–	–	–	–	–	–	–	–	–	–	–	–	–
NC(CCC(=O)NCCS(=O)(=O)O)C(=O)O (centres unmarked) [glutaurine]	–	–	32	30	marked decrease	3.28	2.74	no significant change	slightly reduced	7.9	7.3	consistent increase	96	109	fat loss	increased body temperature	increased sweating
